These are literature values, as cited in article PMC11261124 (Poultry Science, 2024).

Data set [1] concerns HIV.
For data set [2], the system named is HSV-2. The conditions noted are these: read-out: IC50 against HSV-2.

In the case of `COc1cn2c3ccccc3c3ccnc(c1=O)c32` [Drymaritin], in data set [1], the “anti-HIV activity IC50” value is 0.699 µg/mL.

Broadly, the IC50 is the concentration that inhibits the measured activity by half. For `COc1ccc2c(c1)[nH]c1c(C)nccc12` [Harmine], the IC50 in data set [2] is 1470 nM.
